Measurements as given in patent publication US20240327334A1, “Covalent Inhibitors As Antiviral Agents” (Enanta Pharmaceuticals, Inc., priority 2022, published 2024).

How the values were obtained:
[1] = test system: SARS-CoV-2 replicon; experiment: microbe, parasite or virus in culture; format: cell-based; details: Severe acute respiratory syndrome coronavirus 2, Huh-7
[2] = biological target: SARS-CoV-2 Papain-like (PLpro) protease (Severe acute respiratory syndrome coronavirus 2, UniProt P0DTD1); experiment: SARS-CoV-2 Papain-like (PLpro) protease biochemical enzyme inhibition assay (ubiquitin-fluorophore substrate, Ub-R110); details: Ub-R110 substrate; run in duplicate; read-out: PLpro IC50

| SMILES | EC50 [1] [nM] | IC50 [2] [nM] |
| --- | --- | --- |
| COC(=O)/C=C/CNC(=O)C(=O)NCc1ccccc1C(=O)NC1(c2cccc3ccccc23)CC1 [Example 4] | < 1000 | < 100 |
| C[C@@H](NC(=O)c1ccccc1CNC(=O)C(=O)NCC#N)c1cccc2ccccc12 [Example 6] | 1000 to 10000 | < 100 |
| COC(=O)C#CCCNC(=O)C(=O)NCc1ccccc1C(=O)N[C@H](C)c1cccc2ccccc12 [Example 8] | < 1000 | < 100 |
| C=CC(=O)NNC(=O)C(=O)NCc1ccccc1C(=O)N[C@H](C)c1cccc2ccccc12 [Example 22] | > 10000 | 100 to 1000 |
| COC(=O)/C(C)=C/CNC(=O)C(=O)NCc1ccccc1C(=O)N[C@H](C)c1cccc2ccccc12 [Example 24] | < 1000 | < 100 |
| N#CCNC(=O)C(=O)NCc1ccccc1C(=O)NC1(c2cccc3ccccc23)CC1 [Example 25] | < 1000 | < 100 |
| COC(=O)/C=C/CNC(=O)C(=O)NCc1cccc(F)c1C(=O)N[C@H](C)c1cccc2ccccc12 [Example 28] | < 1000 | < 100 |
| C[C@@H](NC(=O)c1c(F)cccc1CNC(=O)C(=O)NCC#N)c1cccc2ccccc12 [Example 29] | 1000 to 10000 | < 100 |
| CC(C#N)NC(=O)C(=O)NCc1ccccc1C(=O)NC1(c2cccc3ccccc23)CC1 (centres unmarked) [Example 33] | > 10000 | 100 to 1000 |
| C#CCNC(=O)C(=O)NCc1ccc(C#N)cc1C(=O)NC1(c2ccc(F)c3ccccc23)CC1 [Example 53] | < 1000 | < 100 |
| N#CCNC(=O)C(=O)NCc1ccccc1C(=O)NC1(c2cccc3cc(F)ccc23)CC1 [Example 54] | < 1000 | < 100 |
| N#CCNC(=O)C(=O)NCc1ccc(C#N)cc1C(=O)NC1(c2ccc(F)c3ccccc23)CC1 [Example 55] | 1000 to 10000 | < 100 |
| C#CCNC(=O)C(=O)NCc1ccccc1C(=O)NC1(c2cccc3cc(F)ccc23)CC1 [Example 56] | < 1000 | < 100 |
| C#CCNC(=O)C(=O)NCc1ccccc1C(=O)NC1(c2cc(-c3cn(C4CC4)nn3)cc(C(F)(F)F)c2)CC1 [Example 59] | < 1000 | < 100 |
| C#CCNC(=O)C(=O)NCc1ccc(C(=O)N2CC(F)(F)C2)cc1C(=O)NC1(c2ccc(F)c3ccccc23)CC1 [Example 61] | < 1000 | < 100 |
| N#CCNC(=O)C(=O)NCc1ccc(C(=O)N2CC(F)(F)C2)cc1C(=O)NC1(c2ccc(F)c3ccccc23)CC1 [Example 62] | 1000 to 10000 | < 100 |
| C#CCNC(=O)C(=O)NCc1ccccc1C(=O)NC1(c2cc(C#C)cc(C(F)(F)F)c2)CC1 [Example 69] | < 1000 | < 100 |
| C#Cc1cc(C(F)(F)F)cc(C2(NC(=O)c3ccccc3CNC(=O)C(=O)NCC#N)CC2)c1 [Example 70] | < 1000 | 100 to 1000 |
| C#CCNC(=O)C(=O)NCc1ccccc1C(=O)NC1(c2cc(Cl)cc(-c3cnc(C(F)(F)F)nc3)c2)CC1 [Example 71] | < 1000 | < 100 |
| C#CCNC(=O)C(=O)NCc1ccccc1C(=O)NC1(c2cc(Cl)cc(-c3cnc(C4CC4)nc3)c2)CC1 [Example 73] | < 1000 | < 100 |
| N#CCNC(=O)C(=O)NCc1ccccc1C(=O)NC1(c2cc(Cl)cc(-c3cnc(C4CC4)nc3)c2)CC1 [Example 74] | 1000 to 10000 | < 100 |
| C#CCNC(=O)C(=O)NCc1ccccc1C(=O)NC1(c2cc(Cl)cc(C(=O)N(C)c3ccc(F)cc3)c2)CC1 [Example 77] | 1000 to 10000 | < 100 |
| CN(C(=O)c1cc(Cl)cc(C2(NC(=O)c3ccccc3CNC(=O)C(=O)NCC#Cc3nccs3)CC2)c1)c1ccc(F)cc1 [Example 79] | < 1000 | < 100 |
| O=C(NCC#Cc1nccs1)C(=O)NCc1ccccc1C(=O)NC1(c2cc(F)cc(-c3cnn(C(F)F)c3)c2)CC1 [Example 81] | < 1000 | < 100 |
| O=C(NCC#Cc1nccs1)C(=O)NCc1ccccc1C(=O)NC1(c2cc(F)cc(C(=O)Nc3ccc(F)cc3F)c2)CC1 [Example 82] | < 1000 | < 100 |
| O=C(NCC#Cc1nccs1)C(=O)NCc1ccccc1C(=O)NC1(c2cc(Cl)cc(-c3cnc(C4CC4)nc3)c2)CC1 [Example 83] | < 1000 | < 100 |

| SMILES | EC50 [1] [nM] | IC50 [2] [nM] |
| --- | --- | --- |
| O=C(NCC#Cc1nccs1)C(=O)NCc1cccnc1C(=O)NC1(c2cc(F)cc(-c3cnn(C4CC4)c3)c2)CC1 [Example 84] | < 1000 | < 100 |
| Cc1cc(C#N)ccc1C#CCNC(=O)C(=O)NCc1ccccc1C(=O)NC1(c2ccc3ccccc3c2)CC1 [Example 85] | < 1000 | < 100 |
| N#Cc1ccc(C#CCNC(=O)C(=O)NCc2ccccc2C(=O)NC2(c3ccc4ccccc4c3)CC2)c(F)c1 [Example 86] | < 1000 | < 100 |
| N#Cc1cc(F)c(C#CCNC(=O)C(=O)NCc2ccccc2C(=O)NC2(c3ccc4ccccc4c3)CC2)c(F)c1 [Example 87] | < 1000 | < 100 |
| COc1cc(C#N)ccc1C#CCNC(=O)C(=O)NCc1ccccc1C(=O)NC1(c2ccc3ccccc3c2)CC1 [Example 88] | < 1000 | < 100 |
| N#CCNC(=O)C(=O)NCc1ccccc1C(=O)NC1(c2cc(C(F)(F)F)nc3ccccc23)CC1 [Example 90] | 1000 to 10000 | < 100 |
| N#Cc1ccccc1C#CCNC(=O)C(=O)NCc1ccccc1C(=O)NC1(c2ccc3ccccc3c2)CC1 [Example 94] | < 1000 | < 100 |
| CC(C)[C@@H](C#Cc1nccs1)NC(=O)C(=O)NCc1ccccc1C(=O)NC1(c2ccc3nn(C)cc3c2)CC1 [Example 97] | < 1000 | 100 to 1000 |
| C[C@@H](C#Cc1ccc(C#N)cc1F)NC(=O)C(=O)NCc1ccccc1C(=O)NC1(c2ccc3nn(C)cc3c2)CC1 [Example 98] | < 1000 | < 100 |
| C[C@@H](C#Cc1ccccc1C#N)NC(=O)C(=O)NCc1ccccc1C(=O)NC1(c2ccc3nn(C)cc3c2)CC1 [Example 99] | < 1000 | < 100 |
| C[C@@H](C#Cc1c(F)cccc1C#N)NC(=O)C(=O)NCc1ccccc1C(=O)NC1(c2ccc3nn(C)cc3c2)CC1 [Example 100] | < 1000 | < 100 |
| Cn1cc2cc(C3(NC(=O)c4ccccc4CNC(=O)C(=O)NCC#Cc4ccc(C#N)cc4F)CC3)ccc2n1 [Example 103] | < 1000 | < 100 |
| Cn1cc2cc(C3(NC(=O)c4ccccc4CNC(=O)C(=O)NCC#Cc4ccccc4C#N)CC3)ccc2n1 [Example 104] | < 1000 | < 100 |
| C[C@@H](C#Cc1c(F)cc(F)cc1C#N)NC(=O)C(=O)NCc1ccccc1C(=O)NC1(c2ccc3nn(C)cc3c2)CC1 [Example 105] | < 1000 | < 100 |
| C[C@@H](C#Cc1ccc(C#N)c(F)c1)NC(=O)C(=O)NCc1ccccc1C(=O)NC1(c2ccc3nn(C)cc3c2)CC1 [Example 106] | < 1000 | < 100 |
| C[C@@H](C#Cc1ccc(C#N)cc1Cl)NC(=O)C(=O)NCc1ccccc1C(=O)NC1(c2ccc3nn(C)cc3c2)CC1 [Example 107] | < 1000 | < 100 |
| C[C@@H](C#Cc1ccc(C#N)cc1C(F)(F)F)NC(=O)C(=O)NCc1ccccc1C(=O)NC1(c2ccc3nn(C)cc3c2)CC1 [Example 109] | < 1000 | < 100 |
| N#CN1CC(C(=O)NCc2ccccc2C(=O)NC2(c3cccc4ccccc34)CC2)C1 [Example 114] | < 1000 | < 100 |
| N#CN1CCC(C(=O)NCc2ccccc2C(=O)NC2(c3cccc4ccccc34)CC2)C1 (centres unmarked) [Example 115] | < 1000 | < 100 |
| N#CCNC(=O)C(=O)NCc1ccccc1C(=O)NC1(c2cc(C(=O)NC3CC3)cc3ccccc23)CC1 [Example 117] | 1000 to 10000 | < 100 |
| COC(=O)/C=C/CNC(=O)C(=O)NCc1c(F)cc(F)cc1C(=O)N[C@H](C)c1cccc2ccccc12 [Example 360] | 1000 to 10000 | – |
| N#CN1CC[C@@H](C(=O)NCc2ccccc2C(=O)NC2(c3cc(Br)cc4ccccc34)CC2)C1 [Example 416] | < 1000 | – |
| N#CN1CC[C@H](C(=O)NCc2ccccc2C(=O)NC2(c3cc(Br)cc4ccccc34)CC2)C1 [Example 417] | < 1000 | – |
| O=C(NC/C=C/c1cnccn1)C(=O)NCc1ccccc1C(=O)NC1(c2ccc3ccccc3c2)CC1 [Example 580] | – | 100 to 1000 |
| COc1cc(C2(NC(=O)c3ccccc3CNC(=O)C(=O)NC/C=C/c3ccccn3)CC2)cc2cn(C3CC3)nc12 [Example 581] | – | 100 to 1000 |
| O=C(NC/C=C/c1nccs1)C(=O)NCc1ccccc1C(=O)NC1(c2ccc3ccccc3c2)CC1 [Example 583] | – | 100 to 1000 |
